Format in all cases: cell-based
The subject of assay [1] is mouse hepatocyte/NHDF cell sheet. Kind of assay: Effect of added agent on ballooning of mouse hepatocytes in PMH/NHDF hepatocyte construct (H&E staining). As to conditions: metformin 500 μM added on day 1; mouse hepatocyte/NHDF cell sheet day 8. As to the method: (§1) At pre-determined time points, cell sheet samples were washed by pre-warmed PBS twice and fixed in 4% paraformaldehyde at room temperature for 1 h. Fixed cell sheets were embedded in paraffin, sliced into 4 μm sections and deparaffinized for standard histological staining with hematoxylin and eosin (HE). For immunostainings of cytokeratin 8+18 (CK8/18), sections were treated with Dako proteinase K (Agilent, Santa Clara, Calif., US) for antigen retrieval, incubated in Dako REAL peroxidase-blocking solution (Agilent) to quench endogenous peroxidase activity, and then blocked in Blocking One Histo (Nacalai Tesque, Kyoto, Japan). After that, the sections were incubated with mouse anti-human CK8/18 at 25-fold dilution (Abeam, Cambridge, UK) followed by incubation with horseradish […] donkey anti-mouse IgG H&L (Abeam). The sections were dyed with Dako Liquid DAB+Substrate Chromogen System (Agilent) and the nuclei were stained with hematoxylin. Finally, the sections were mounted, dried and imaged with a light microscope (Nikon).
Primary mouse hepatocytes (PMH) were obtained in the same manner as in Example 3.
As NHDFs, NHDFs used in Example 1 were used.
Primary mouse hepatocytes (PMH)/NHDF co-culture and production of a hepatocyte construct were performed in the same manner as in Example 1 except that PMHs were used in place of the above-mentioned PHHs. […]

The next assay has as its system PHH/NHDF cell sheet. Kind of assay: Effect of added agent on ballooning of human hepatocytes in PHH/NHDF hepatocyte construct (H&E staining). The following applies: metformin 500 μM added on day 1; PHH/NHDF cell sheet on day 11 or day 4. The protocol:
as §1
As PHHs and NHDFs, PHHs and NHDFs used in Example 1 were used.
Primary human hepatocytes (PHH)/NHDF co-culture and production of a hepatocyte construct were performed in the same manner as in Example 1 described above. […]

The subject of assay [2] is mouse hepatocyte/NHDF cell sheet. Kind of assay: Hepatocellular ballooning in mouse hepatocyte/NHDF cell sheet made with mitomycin C-treated NHDFs (H&E staining). As to conditions: NHDFs treated with mitomycin C 6 μg/mL for 2.5 hours before co-culture with PMHs; cell sheet day 8; vs untreated NHDFs. The protocol: as §1
Primary mouse hepatocytes (PMH) were isolated from the liver of a mouse by a modified two-step collagenase perfusion method and purified by a 45% percoll density gradient centrifugation method. The viability of PMHs was 90%.
As NHDFs, NHDFs used in Example 1 were used. […]

`CN(C)C(=N)N=C(N)N` [metformin]: the hepatocellular ballooning entry (in assay [1]; in the assay with PHH/NHDF cell sheet) was “suppressed” in each case.

As to `CO[C@@]12[C@H](COC(N)=O)C3=C(C(=O)C(C)=C(N)C3=O)N1C[C@@H]1N[C@@H]12` [mitomycin C], the hepatocellular ballooning entry in assay [2] is “suppressed”.

Source of the values: US20200291350A1, “HEPATOCYTE CONSTRUCT AND METHOD FOR PRODUCING THE SAME” (NIHON KOHDEN CORPORATION, priority 2019, published 2020).
